What was measured:
Assay in all cases: KINOMEscan competition binding
Conditions in all cases: compound 1.0 µM
ACVR1B (human) = ACVR1B (human) (UniProt P36896)
ACVR2A (human) = ACVR2A (human) (UniProt P27037)
ADCK4 (human) = ADCK4 (human) (UniProt Q96D53)
AKT2 (human) = AKT2 (human) (UniProt P31751)
AXL (human) = AXL (human) (UniProt P30530)
BMP2K (human) = BMP2K (human) (UniProt Q9NSY1)
CDK14 (human) = CDK14 (human) (UniProt O94921)
CDK17 (human) = CDK17 (human) (UniProt Q00537)
CDK18 (human) = CDK18 (human) (UniProt Q07002)
CDK3 (human) = CDK3 (human) (UniProt Q00526)
CIT (human) = CIT (human) (UniProt O14578)
CLK2 (human) = CLK2 (human) (UniProt P49760)
CSNK1D (human) = CSNK1D (human) (UniProt P48730)
[1] = test system: EGFR (human), P00533 [A750P; 747-749 del]
[2] = test system: EGFR (human), P00533 [G719C]
[3] = test system: EGFR (human), P00533 [P753S; 747-752 del]
EPHA5 (human) = EPHA5 (human) (UniProt P54756)
EPHB2 (human) = EPHB2 (human) (UniProt P29323)
ERBB4 (human) = ERBB4 (human) (UniProt Q15303)
[4] = test system: FLT3 (human), P36888 [D835H]
HIPK3 (human) = HIPK3 (human) (UniProt Q9H422)
[5] = molecular target: JAK1 JH2 pseudokinase (human) (UniProt P23458)
LIMK1 (human) = LIMK1 (human) (UniProt P53667)
MAP3K10 (human) = MAP3K10 (human) (UniProt Q02779)
MAP4K3 (human) = MAP4K3 (human) (UniProt Q8IVH8)
MAP4K5 (human) = MAP4K5 (human) (UniProt Q9Y4K4)
MAPK15 (human) = MAPK15 (human) (UniProt Q8TD08)
MAPKAPK5 (human) = MAPKAPK5 (human) (UniProt Q8IW41)
MST1R (human) = MST1R (human) (UniProt Q04912)
NIM1 (human) = NIM1 (human) (UniProt Q8IY84)
PI4KB (human) = PI4KB (human) (UniProt Q9UBF8)
[6] = test system: PIK3CA (human), P42336 [C420R]
PIK3CG (human) = PIK3CG (human) (UniProt P48736)
PKN2 (human) = PKN2 (human) (UniProt Q16513)
PLK2 (human) = PLK2 (human) (UniProt Q9NYY3)
PRKACB (human) = PRKACB (human) (UniProt P22694)
PRPF4B (human) = PRPF4B (human) (UniProt Q13523)
RPS6KA1 KD2 (human) = RPS6KA1 KD2 (human) (UniProt Q15418)
RPS6KA5 KD2 (human) = RPS6KA5 KD2 (human) (UniProt O75582)
RPS6KA6 KD2 (human) = RPS6KA6 KD2 (human) (UniProt Q9UK32)
SGK3 (human) = SGK3 (human) (UniProt Q96BR1)
TEK (human) = TEK (human) (UniProt Q02763)
YES1 (human) = YES1 (human) (UniProt P07947)

NIM1 (human), sequence (Q8IY84 whole entry, looked up): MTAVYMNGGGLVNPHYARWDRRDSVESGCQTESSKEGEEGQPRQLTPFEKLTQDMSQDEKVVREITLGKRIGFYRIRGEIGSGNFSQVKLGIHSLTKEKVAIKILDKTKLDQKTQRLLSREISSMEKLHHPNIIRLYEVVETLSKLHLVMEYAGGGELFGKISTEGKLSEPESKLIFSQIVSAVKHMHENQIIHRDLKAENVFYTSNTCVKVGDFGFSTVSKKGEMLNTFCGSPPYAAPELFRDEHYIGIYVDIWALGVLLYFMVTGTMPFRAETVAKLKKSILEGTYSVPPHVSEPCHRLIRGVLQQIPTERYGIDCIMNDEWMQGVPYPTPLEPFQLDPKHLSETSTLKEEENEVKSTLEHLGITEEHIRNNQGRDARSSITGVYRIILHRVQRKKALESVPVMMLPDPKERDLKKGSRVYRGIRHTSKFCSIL
ACVR1B (human), sequence (P36896 whole entry, looked up): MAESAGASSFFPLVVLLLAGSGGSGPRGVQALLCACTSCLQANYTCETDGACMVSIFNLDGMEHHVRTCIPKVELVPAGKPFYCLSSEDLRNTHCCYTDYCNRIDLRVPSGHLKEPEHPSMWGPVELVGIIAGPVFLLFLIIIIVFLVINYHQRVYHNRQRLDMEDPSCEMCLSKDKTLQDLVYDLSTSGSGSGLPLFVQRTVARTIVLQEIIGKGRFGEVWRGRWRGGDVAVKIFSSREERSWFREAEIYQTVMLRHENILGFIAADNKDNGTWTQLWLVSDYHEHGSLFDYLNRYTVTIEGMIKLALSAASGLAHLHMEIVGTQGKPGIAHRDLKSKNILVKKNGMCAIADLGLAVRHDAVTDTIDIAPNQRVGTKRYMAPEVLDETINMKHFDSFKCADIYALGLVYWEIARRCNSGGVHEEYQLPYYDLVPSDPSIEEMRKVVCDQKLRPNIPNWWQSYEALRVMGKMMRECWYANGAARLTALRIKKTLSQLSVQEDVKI
MAP4K3 (human), sequence (Q8IVH8 whole entry, looked up): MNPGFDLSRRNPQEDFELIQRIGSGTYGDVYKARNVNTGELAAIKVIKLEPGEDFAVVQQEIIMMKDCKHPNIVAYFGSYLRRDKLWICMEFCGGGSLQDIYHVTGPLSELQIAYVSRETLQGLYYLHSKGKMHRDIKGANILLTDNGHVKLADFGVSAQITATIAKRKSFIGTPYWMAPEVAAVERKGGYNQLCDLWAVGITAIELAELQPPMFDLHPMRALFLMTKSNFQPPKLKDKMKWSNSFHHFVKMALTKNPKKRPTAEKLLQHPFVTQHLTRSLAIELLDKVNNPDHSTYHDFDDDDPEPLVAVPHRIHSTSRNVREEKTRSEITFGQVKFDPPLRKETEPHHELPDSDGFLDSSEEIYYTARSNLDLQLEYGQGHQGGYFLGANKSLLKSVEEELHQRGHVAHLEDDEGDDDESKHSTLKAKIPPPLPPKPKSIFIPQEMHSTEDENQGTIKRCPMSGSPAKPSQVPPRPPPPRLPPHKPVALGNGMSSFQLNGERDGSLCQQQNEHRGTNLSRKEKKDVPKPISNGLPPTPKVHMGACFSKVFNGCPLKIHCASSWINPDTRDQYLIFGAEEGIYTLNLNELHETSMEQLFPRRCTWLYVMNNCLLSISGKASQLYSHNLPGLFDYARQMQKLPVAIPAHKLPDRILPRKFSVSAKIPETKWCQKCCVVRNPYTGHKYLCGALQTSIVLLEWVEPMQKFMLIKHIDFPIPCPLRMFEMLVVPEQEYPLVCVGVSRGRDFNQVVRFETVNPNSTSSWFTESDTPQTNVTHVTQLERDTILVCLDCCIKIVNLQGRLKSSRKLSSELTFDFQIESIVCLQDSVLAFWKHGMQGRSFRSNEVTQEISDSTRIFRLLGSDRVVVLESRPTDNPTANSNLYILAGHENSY
PRPF4B (human), sequence (Q13523 whole entry, looked up): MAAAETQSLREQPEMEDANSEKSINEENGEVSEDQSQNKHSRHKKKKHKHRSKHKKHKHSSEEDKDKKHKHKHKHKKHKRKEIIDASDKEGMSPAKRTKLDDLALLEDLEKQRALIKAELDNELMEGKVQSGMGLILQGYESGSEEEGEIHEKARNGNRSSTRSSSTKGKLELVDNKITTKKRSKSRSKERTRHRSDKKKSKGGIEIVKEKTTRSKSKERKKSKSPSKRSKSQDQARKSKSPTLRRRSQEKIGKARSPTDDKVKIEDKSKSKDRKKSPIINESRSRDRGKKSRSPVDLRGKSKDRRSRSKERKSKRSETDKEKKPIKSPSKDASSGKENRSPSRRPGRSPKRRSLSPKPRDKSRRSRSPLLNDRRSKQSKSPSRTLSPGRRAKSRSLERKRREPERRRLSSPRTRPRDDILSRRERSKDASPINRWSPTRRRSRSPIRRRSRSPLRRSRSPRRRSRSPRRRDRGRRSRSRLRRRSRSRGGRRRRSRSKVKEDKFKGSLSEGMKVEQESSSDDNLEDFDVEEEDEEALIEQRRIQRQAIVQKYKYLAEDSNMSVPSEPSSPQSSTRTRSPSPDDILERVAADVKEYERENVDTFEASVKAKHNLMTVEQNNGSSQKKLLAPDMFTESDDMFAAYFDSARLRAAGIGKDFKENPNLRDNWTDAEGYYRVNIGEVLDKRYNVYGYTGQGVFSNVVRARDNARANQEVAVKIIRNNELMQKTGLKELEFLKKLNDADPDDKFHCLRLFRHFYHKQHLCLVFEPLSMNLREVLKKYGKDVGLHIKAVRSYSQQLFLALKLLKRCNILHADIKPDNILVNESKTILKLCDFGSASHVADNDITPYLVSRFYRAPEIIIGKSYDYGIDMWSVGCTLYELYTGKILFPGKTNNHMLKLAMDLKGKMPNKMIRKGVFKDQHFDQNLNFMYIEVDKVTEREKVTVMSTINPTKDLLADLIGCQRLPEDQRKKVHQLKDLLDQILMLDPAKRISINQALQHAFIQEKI
CDK14 (human), sequence (O94921 whole entry, looked up): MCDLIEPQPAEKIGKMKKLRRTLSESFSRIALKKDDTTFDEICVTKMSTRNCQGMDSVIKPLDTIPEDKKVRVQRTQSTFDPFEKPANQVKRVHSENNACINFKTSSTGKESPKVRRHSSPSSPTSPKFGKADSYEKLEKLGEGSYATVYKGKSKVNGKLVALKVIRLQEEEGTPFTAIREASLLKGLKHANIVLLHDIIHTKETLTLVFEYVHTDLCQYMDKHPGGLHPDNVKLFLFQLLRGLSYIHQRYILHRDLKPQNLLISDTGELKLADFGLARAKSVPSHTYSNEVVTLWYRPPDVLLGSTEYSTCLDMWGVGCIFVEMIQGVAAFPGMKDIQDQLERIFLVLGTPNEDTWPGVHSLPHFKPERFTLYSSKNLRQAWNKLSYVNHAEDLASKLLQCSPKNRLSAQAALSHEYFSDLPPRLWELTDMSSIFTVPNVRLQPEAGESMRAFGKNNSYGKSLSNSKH
ADCK4 (human), sequence (Q96D53 whole entry, looked up): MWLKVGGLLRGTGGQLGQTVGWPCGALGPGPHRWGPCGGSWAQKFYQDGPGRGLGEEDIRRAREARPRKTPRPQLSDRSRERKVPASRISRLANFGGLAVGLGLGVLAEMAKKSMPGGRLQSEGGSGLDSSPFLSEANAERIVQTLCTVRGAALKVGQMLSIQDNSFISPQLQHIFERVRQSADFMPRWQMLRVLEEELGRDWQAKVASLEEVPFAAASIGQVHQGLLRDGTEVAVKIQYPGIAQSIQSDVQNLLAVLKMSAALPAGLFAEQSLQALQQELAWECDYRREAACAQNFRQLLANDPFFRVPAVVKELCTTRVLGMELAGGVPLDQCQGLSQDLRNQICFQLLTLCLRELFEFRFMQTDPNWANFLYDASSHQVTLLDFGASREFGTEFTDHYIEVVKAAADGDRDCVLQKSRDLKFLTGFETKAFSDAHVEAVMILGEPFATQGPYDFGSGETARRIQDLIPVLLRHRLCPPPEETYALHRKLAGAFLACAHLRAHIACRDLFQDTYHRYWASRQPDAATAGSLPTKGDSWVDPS
MAP4K5 (human), sequence (Q9Y4K4 whole entry, looked up): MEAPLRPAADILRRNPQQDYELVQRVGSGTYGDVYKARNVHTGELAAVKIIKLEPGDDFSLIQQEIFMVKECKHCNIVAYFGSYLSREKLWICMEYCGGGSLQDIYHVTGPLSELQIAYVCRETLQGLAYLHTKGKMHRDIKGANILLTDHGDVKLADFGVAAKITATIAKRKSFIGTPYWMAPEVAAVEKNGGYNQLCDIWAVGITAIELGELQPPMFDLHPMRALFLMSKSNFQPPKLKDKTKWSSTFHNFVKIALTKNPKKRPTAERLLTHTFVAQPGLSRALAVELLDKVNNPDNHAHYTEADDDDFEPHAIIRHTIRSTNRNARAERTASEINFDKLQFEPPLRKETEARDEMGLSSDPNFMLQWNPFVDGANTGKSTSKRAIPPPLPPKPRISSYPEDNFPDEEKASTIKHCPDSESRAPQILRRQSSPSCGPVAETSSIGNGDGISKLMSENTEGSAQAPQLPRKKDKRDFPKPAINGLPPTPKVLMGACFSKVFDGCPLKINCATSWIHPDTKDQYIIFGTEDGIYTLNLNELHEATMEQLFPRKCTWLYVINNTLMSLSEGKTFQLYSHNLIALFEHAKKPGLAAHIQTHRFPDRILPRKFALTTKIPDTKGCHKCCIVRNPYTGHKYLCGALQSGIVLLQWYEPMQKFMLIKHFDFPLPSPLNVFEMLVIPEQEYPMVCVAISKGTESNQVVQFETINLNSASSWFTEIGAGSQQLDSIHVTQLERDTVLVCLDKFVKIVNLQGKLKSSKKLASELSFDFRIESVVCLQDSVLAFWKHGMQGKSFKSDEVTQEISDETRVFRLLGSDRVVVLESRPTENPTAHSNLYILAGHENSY
CDK3 (human), sequence (Q00526 whole entry, looked up): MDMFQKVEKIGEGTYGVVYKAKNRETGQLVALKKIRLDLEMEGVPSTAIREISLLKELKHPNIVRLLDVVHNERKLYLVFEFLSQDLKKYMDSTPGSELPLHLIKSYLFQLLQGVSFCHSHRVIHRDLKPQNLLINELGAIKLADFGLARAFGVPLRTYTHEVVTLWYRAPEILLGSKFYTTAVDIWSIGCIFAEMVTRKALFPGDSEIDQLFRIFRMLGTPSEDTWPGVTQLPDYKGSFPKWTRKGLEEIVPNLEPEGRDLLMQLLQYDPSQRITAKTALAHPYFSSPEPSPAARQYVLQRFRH

COCCNCCCn1c(C(=O)CF)c(-c2ccc(C)cc2)c2c(N)ncnc21
kinase still bound, per cent of control (ACVR1B (human)): 91% | kinase still bound, per cent of control (ACVR2A (human)): 100% | kinase still bound, per cent of control (ADCK4 (human)): 93% | kinase still bound, per cent of control (AKT2 (human)): 95% | kinase still bound, per cent of control (AXL (human)): 81% | kinase still bound, per cent of control (BMP2K (human)): 94% | kinase still bound, per cent of control (CDK14 (human)): 100% | kinase still bound, per cent of control (CDK17 (human)): 100% | kinase still bound, per cent of control (CDK18 (human)): 100% | kinase still bound, per cent of control (CDK3 (human)): 100% | kinase still bound, per cent of control (CIT (human)): 93% | kinase still bound, per cent of control (CLK2 (human)): 100% | kinase still bound, per cent of control (CSNK1D (human)): 82% | kinase still bound, per cent of control [1]: 67% | kinase still bound, per cent of control [2]: 84% | kinase still bound, per cent of control [3]: 100% | kinase still bound, per cent of control (EPHA5 (human)): 91% | kinase still bound, per cent of control (EPHB2 (human)): 92% | kinase still bound, per cent of control (ERBB4 (human)): 100% | kinase still bound, per cent of control [4]: 100% | kinase still bound, per cent of control (HIPK3 (human)): 100% | kinase still bound, per cent of control [5]: 100% | kinase still bound, per cent of control (LIMK1 (human)): 100% | kinase still bound, per cent of control (MAP3K10 (human)): 77% | kinase still bound, per cent of control (MAP4K3 (human)): 100% | kinase still bound, per cent of control (MAP4K5 (human)): 86% | kinase still bound, per cent of control (MAPK15 (human)): 96% | kinase still bound, per cent of control (MAPKAPK5 (human)): 100% | kinase still bound, per cent of control (MST1R (human)): 100% | kinase still bound, per cent of control (NIM1 (human)): 100% | kinase still bound, per cent of control (PI4KB (human)): 100% | kinase still bound, per cent of control [6]: 100% | kinase still bound, per cent of control (PIK3CG (human)): 100% | kinase still bound, per cent of control (PKN2 (human)): 94% | kinase still bound, per cent of control (PLK2 (human)): 96% | kinase still bound, per cent of control (PRKACB (human)): 96% | kinase still bound, per cent of control (PRPF4B (human)): 100% | kinase still bound, per cent of control (RPS6KA1 KD2 (human)): 31% | kinase still bound, per cent of control (RPS6KA5 KD2 (human)): 98% | kinase still bound, per cent of control (RPS6KA6 KD2 (human)): 2.4% | kinase still bound, per cent of control (SGK3 (human)): 79% | kinase still bound, per cent of control (TEK (human)): 100% | kinase still bound, per cent of control (YES1 (human)): 92%
